Consider three compounds from patent publication US9334273B1, “Efficient and stereoselective synthesis of 2′-fluoro-6′-methylene-carbocyclic adenosine (FMCA)” (UNIVERSITY OF GEORGIA RESEARCH FOUNDATION, INC., priority 2014, dated 2016).

The subject of data set [1] is HBV wild type as well as resistant mutants. Particulars: both wild type as well as resistant mutants; cited from earlier work.
The subject of data set [2] is entecavir resistant triple mutant (L180M+M204V+S202G) HBV. Particulars: cited from earlier work; for EC50: in vitro, entecavir resistant triple mutant (L180M+M204V+S202G).

In general, EC50 refers to the concentration at which the effect is half-maximal. For the compound `C=C1C(COP(=O)(N[C@@H](C)C(=O)OC)Oc2ccccc2)C(O)C(F)C1n1cnc2c(N)ncnc21` (stereo partly drawn) [FMCAP], the anti-HBV efficacy entry in data set [1] is “demonstrated the anti-HBV efficacy”. Moreover, in data set [2], the EC50 was 54 nM.

`C=C1[C@H](CO)[C@@H](O)C[C@@H]1n1cnc2c(=O)[nH]c(N)nc21` [entecavir, reference compound]: in data set [2] (triple mutant (L180M+M204V+S202G) vs wild type), the “fold less effective against the mutant in comparison to wild type” value is reported as 150 fold.

One may read the melting point as the temperature of the solid-liquid transition. Turning to `C=C1[C@@H](n2cnc3c(N)ncnc32)C(F)C(O)[C@H]1CO` (single isomer, unassigned; (+)) [FMCA, (+)-9-[(1′R, 2′R, 3′R, 4′R)-2′-Fluoro-3′-hydroxy-4′-(hydroxymethyl)-5′-methylenecyclo-pentan-1′-yl]-adenine], the melting point was 215 to 218 °C (dec.). Moreover, the anti-HBV efficacy result in data set [1] is “demonstrated the anti-HBV efficacy”. In data set [2], the EC50 is 670 nM.
